# Read-outs that look alike come from different tables or passages of the source.
# Tests used:
# [1] = tested on: Salmonella typhimurium TA98; conditions: 250 µM;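 further: test compound and mutagen preincubated 30 min at 37°C before adding bacteria, then His+ revertant colonies counted after 48 h plating, inhibition relative to mutagen-only versus negative-control revertants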
# Method: (§1) In the preincubation experiment, test compounds and mutagen, each having a volume of 0.1 mL of varying concentrations, were preincubated at 37°C for 30 min and then 0.1 mL of 1 × 10^7 CFU/mL density of the bacterial culture was added, followed by the addition of 2.5 mL of top agar at 45°C (containing 0.5% NaCl and 0.6% agar) supplemented with 0.5 mM histidine-biotin. […] The combined solutions were vortexed and poured onto minimal glucose plates (40% glucose solution and Vogel Bonner medium). The plates were incubated at 37°C for 48 h and the numbers of histidine-independent revertants colonies were scored.
# (§2) Survival of the bacteria was routinely monitored for each experiment. Parallel controls were run with compounds alone at all concentrations to test the possible toxicity. The concentrations of the test samples for investigating the antimutagenicity were 50, 100, 200, and 500 μM. […] All the test samples and mutagens were dissolved in DMSO (final conc., 0.01%). […] Plates were set up in triplicate for each concentration and the entire experiment was repeated three times. Inhibition of mutagenicity was expressed as percentage decrease of reverse mutation and calculated as (1) Percent inhibition=[(a−b)/(a−c)]×100, where a = number of histidine revertants induced by mutagen, b = number of histidine revertants induced by mutagen in the presence of test compound, and c = number of revertants induced in negative control.
# [2] = tested on: Salmonella typhimurium strains TA97a, TA98, TA100, and TA102; assay: Ames test, statements over all tester strains; conditions: 50–500 μM
# Method: as §1, §2
# [3] = tested on: Salmonella typhimurium TA102; conditions: 250 µM;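 further: compound and mutagen preincubated 30 min at 37 °C before adding bacteria, His+ revertant colonies counted after 48 h at 37 °C, inhibition relative to mutagen-alone minus negative-control revertants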
# Method: as §1, §2
# [4] = tested on: Salmonella typhimurium TA98; assay: Ames antimutagenicity assay (preincubation); conditions: for inhibition at 50 µM / inhibition at 100 µM / inhibition at 250 µM / inhibition at 500 µM: Salmonella enterica, TYPHIMURIUM;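 on all read-outs here: test compound and mutagen preincubated 30 min at 37°C before adding bacteria, then His+ revertant colonies counted after 48 h plating, inhibition relative to mutagen-only versus negative-control revertants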
# Method: as §1, §2
# [5] = tested on: Salmonella typhimurium TA100; conditions: 250 µM;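 further: compound and mutagen preincubated together 30 min at 37°C before bacteria added, then plates incubated 48 h at 37°C, inhibition relative to mutagen-alone revertants after subtracting the negative control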
# Method: as §1, §2
# [6] = tested on: Salmonella typhimurium TA97a; conditions: 250 µM;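 further: compound and mutagen preincubated together 30 min at 37 °C before adding bacteria, then plated on minimal glucose agar for 48 h and His+ revertant colonies counted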
# Method: as §1, §2
# [7] = tested on: Salmonella typhimurium strains TA97a, TA98, TA100, and TA102
# Method: as §1, §2
# [8] = tested on: Salmonella typhimurium TA97a; assay: Ames antimutagenicity assay (preincubation); conditions: for inhibition at 50 µM / inhibition at 100 µM / inhibition at 250 µM / inhibition at 500 µM: Salmonella enterica, TYPHIMURIUM; for Number of His+ revertants colonies/plate: TA 97a;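 on all read-outs here: compound and mutagen preincubated together 30 min at 37 °C before adding bacteria, then plated on minimal glucose agar for 48 h and His+ revertant colonies counted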
# Method: as §1, §2
smiles,measurement,setting,value
"O=c1oc2c(O)c(O)cc3c(=O)oc4c(O)c(O)cc1c4c23 [Ellagic acid, ellagic acid]",inhibition,[1],56.3%
same,toxicity to Salmonella typhimurium strains,[2]; absence of S9,No toxicity
same,maximum inhibition of mutagenicity,"[2]; against sodium azide, MMS, BP, 2AF",up to 90%
same,inhibition,[3],74.1%
same,inhibition at 50 µM,"[4]; read-out: % inhibition of mutagenicity, TA 98, 50 μM + 2AF, S9",19.4%
same,inhibition at 50 µM,"[4]; read-out: % inhibition of mutagenicity, TA 98, 50 μM + BP, S9",22.2%
same,inhibition at 50 µM,"[4]; read-out: % inhibition of mutagenicity, TA 98, 50 μM + MMS, no S9",22.2%
same,inhibition at 100 µM,"[4]; read-out: % inhibition of mutagenicity, TA 98, 100 μM + 2AF, S9",39.6%
same,inhibition at 100 µM,"[4]; read-out: % inhibition of mutagenicity, TA 98, 100 μM + BP, S9",48.2%
same,inhibition at 100 µM,"[4]; read-out: % inhibition of mutagenicity, TA 98, 100 μM + MMS, no S9",34%
same,inhibition at 100 µM,"[4]; read-out: % inhibition of mutagenicity, TA 98, 100 μM + NaN3, no S9",27.9%
same,inhibition at 250 µM,"[4]; read-out: % inhibition of mutagenicity, TA 98, 250 μM + BP, S9",62.3%
same,inhibition at 250 µM,"[4]; read-out: % inhibition of mutagenicity, TA 98, 250 μM + MMS, no S9",50%
same,inhibition at 250 µM,"[4]; read-out: % inhibition of mutagenicity, TA 98, 250 μM + NaN3, no S9",50%
same,inhibition at 500 µM,"[4]; read-out: % inhibition of mutagenicity, TA 98, 500 μM + 2AF, S9",80%
same,inhibition at 500 µM,"[4]; read-out: % inhibition of mutagenicity, TA 98, 500 μM + BP, S9",78.6%
same,inhibition at 500 µM,"[4]; read-out: % inhibition of mutagenicity, TA 98, 500 μM + MMS, no S9",69%
same,inhibition at 500 µM,"[4]; read-out: % inhibition of mutagenicity, TA 98, 500 μM + NaN3, no S9",64.2%
same,Number of His+ revertants colonies/plate,"[4]; TA 98, 50 μM + 2AF, S9",214.3 ± 13.9 colonies/plate
same,Number of His+ revertants colonies/plate,"[4]; TA 98, 50 μM + BP, S9",140.0 ± 12.2 colonies/plate
same,Number of His+ revertants colonies/plate,"[4]; TA 98, 50 μM + MMS, no S9",53.0 ± 1.2 colonies/plate
same,Number of His+ revertants colonies/plate,"[4]; TA 98, 100 μM + 2AF, S9",171.0 ± 9.5 colonies/plate
same,Number of His+ revertants colonies/plate,"[4]; TA 98, 100 μM + BP, S9",107.3 ± 7.9 colonies/plate
same,Number of His+ revertants colonies/plate,"[4]; TA 98, 100 μM + MMS, no S9",48.3 ± 2.0 colonies/plate
same,Number of His+ revertants colonies/plate,"[4]; TA 98, 100 μM + NaN3, no S9",48.3 ± 2.7 colonies/plate
same,Number of His+ revertants colonies/plate,"[4]; TA 98, 250 μM + BP, S9",86.3 ± 5.8 colonies/plate
same,Number of His+ revertants colonies/plate,"[4]; TA 98, 250 μM + MMS, no S9",44.0 ± 2.1 colonies/plate
same,Number of His+ revertants colonies/plate,"[4]; TA 98, 250 μM + NaN3, no S9",43.3 ± 2.6 colonies/plate
same,Number of His+ revertants colonies/plate,"[4]; TA 98, 500 μM + 2AF, S9",76.3 ± 6.1 colonies/plate
same,Number of His+ revertants colonies/plate,"[4]; TA 98, 500 μM + BP, S9",60.7 ± 10.5 colonies/plate
same,Number of His+ revertants colonies/plate,"[4]; TA 98, 500 μM + MMS, no S9",37.3 ± 2.6 colonies/plate
same,Number of His+ revertants colonies/plate,"[4]; TA 98, 500 μM + NaN3, no S9",38.0 ± 1.7 colonies/plate
same,inhibition,[5],67.7%
same,inhibition,[6],44.9%
same,mutagenic activity,[7],No mutagenic activity
same,inhibition at 50 µM,"[8]; read-out: % inhibition of mutagenicity, TA 97a, 50 μM + 2AF, S9",12.5%
same,inhibition at 50 µM,"[8]; read-out: % inhibition of mutagenicity, TA 97a, 50 μM + BP, S9",14.1%
same,inhibition at 50 µM,"[8]; read-out: % inhibition of mutagenicity, TA 97a, 50 μM + MMS, no S9",9%
same,inhibition at 50 µM,"[8]; read-out: % inhibition of mutagenicity, TA 97a, 50 μM + NaN3, no S9",21.1%
same,inhibition at 100 µM,"[8]; read-out: % inhibition of mutagenicity, TA 97a, 100 μM + 2AF, S9",22.6%
same,inhibition at 100 µM,"[8]; read-out: % inhibition of mutagenicity, TA 97a, 100 μM + BP, S9",36%
same,inhibition at 100 µM,"[8]; read-out: % inhibition of mutagenicity, TA 97a, 100 μM + MMS, no S9",25%
same,inhibition at 100 µM,"[8]; read-out: % inhibition of mutagenicity, TA 97a, 100 μM + NaN3, no S9",39.4%
same,inhibition at 250 µM,"[8]; read-out: % inhibition of mutagenicity, TA 97a, 250 μM + BP, S9",71.8%
same,inhibition at 250 µM,"[8]; read-out: % inhibition of mutagenicity, TA 97a, 250 μM + MMS, no S9",42.2%
same,inhibition at 250 µM,"[8]; read-out: % inhibition of mutagenicity, TA 97a, 250 μM + NaN3, no S9",53.6%
same,inhibition at 500 µM,"[8]; read-out: % inhibition of mutagenicity, TA 97a, 500 μM + 2AF, S9",81.7%
same,inhibition at 500 µM,"[8]; read-out: % inhibition of mutagenicity, TA 97a, 500 μM + BP, S9",83.5%
same,inhibition at 500 µM,"[8]; read-out: % inhibition of mutagenicity, TA 97a, 500 μM + MMS, no S9",66.5%
same,inhibition at 500 µM,"[8]; read-out: % inhibition of mutagenicity, TA 97a, 500 μM + NaN3, no S9",72.1%
same,Number of His+ revertants colonies/plate,"[8]; 50 μM + 2AF, S9",312.3 ± 20.5 colonies/plate
same,Number of His+ revertants colonies/plate,"[8]; 50 μM + BP, S9",652.7 ± 35.3 colonies/plate
same,Number of His+ revertants colonies/plate,"[8]; 50 μM + MMS, no S9",426.3 ± 11.6 colonies/plate
same,Number of His+ revertants colonies/plate,"[8]; 50 μM + NaN3, no S9",242.0 ± 11.8 colonies/plate
same,Number of His+ revertants colonies/plate,"[8]; 100 μM + 2AF, S9",296.7 ± 13.4 colonies/plate
same,Number of His+ revertants colonies/plate,"[8]; 100 μM + BP, S9",529.0 ± 28.6 colonies/plate
same,Number of His+ revertants colonies/plate,"[8]; 100 μM + MMS, no S9",378.0 ± 10.8 colonies/plate
same,Number of His+ revertants colonies/plate,"[8]; 100 μM + NaN3, no S9",219.3 ± 7.1 colonies/plate
same,Number of His+ revertants colonies/plate,"[8]; 250 μM + BP, S9",333.3 ± 22.2 colonies/plate
same,Number of His+ revertants colonies/plate,"[8]; 250 μM + MMS, no S9",321.3 ± 10.8 colonies/plate
same,Number of His+ revertants colonies/plate,"[8]; 250 μM + NaN3, no S9",196.7 ± 8.2 colonies/plate
same,Number of His+ revertants colonies/plate,"[8]; 500 μM + 2AF, S9",212.0 ± 10.4 colonies/plate
same,Number of His+ revertants colonies/plate,"[8]; 500 μM + BP, S9",275.3 ± 17.5 colonies/plate
same,Number of His+ revertants colonies/plate,"[8]; 500 μM + MMS, no S9",239.7 ± 10.8 colonies/plate
same,Number of His+ revertants colonies/plate,"[8]; 500 μM + NaN3, no S9",168.0 ± 7.0 colonies/plate

# — article PMC4052943 (BioMed Research International, 2014)
